Experimental data: patent US20260001914A1, “MACROCYCLIC PEPTIDES TARGETING KRAS” (Merck Sharp & Dohme LLC, priority 2022, published 2026)
*1 amine or outer side, *2 acyl side, *3 side chain or, on linkers, in order; H or OH if unused. Where a SMILES comes first, the peptide text is derived from it. Bridges are numbered along the chain shown (N, C = ends). [ ]: non-standard residue; d: D form. The star is where a group is joined. X34 = O=C(C[C@@H](Cc1ccccc1)C(=O)[*:2])C12CC(CN[*:1])(C1)C2; Phe(4-guanidino) = N=C(N)Nc1ccc(C[C@H](N)C(=O)O)cc1; Ala(pyrimidin-5-yl) = N[C@@H](Cc1cncnc1)C(=O)O; Phe(3-COOH) = N[C@@H](Cc1cccc(C(=O)O)c1)C(=O)O; NMe3Pal(6-Me) = CN[C@@H](Cc1ccc(C)nc1)C(=O)O; NMe3Pal(5-F) = CN[C@@H](Cc1cncc(F)c1)C(=O)O; NMePhe(3-Me) = CN[C@@H](Cc1cccc(C)c1)C(=O)O; X45 = CN([C@@H](Cc1ccncc1F)C(=O)[*:2])[*:1]; 3Pal(6-OMe) = COc1ccc(C[C@H](N)C(=O)O)cn1; X3 = CN([C@@H](Cc1cncnc1)C(=O)[*:2])[*:1]; Ethyl(2-pyrrolidin-1-yl) = C1CCN(CC*)C1; NMeArg(Me) = CNC(=N)NCCC[C@H](NC)C(=O)O; X11 = CC(C)(F)CC[C@H](N[*:1])C(=O)[*:2]; X13 = O=C([C@H](Cc1ccncc1F)N[*:1])[*:2]; 1Nal = N[C@@H](Cc1cccc2ccccc12)C(=O)O; NHCH2CH2SCH2CO = O=C(CSCCN[*:1])[*:2]; Phe(2-F) = N[C@@H](Cc1ccccc1F)C(=O)O; X31 = O=C([C@H](CCC1CC1)N[*:1])[*:2]; NMe3Pal = CN[C@@H](Cc1cccnc1)C(=O)O; X1 = O=C(C12CC(CN[*:1])(C1)C2)[*:2]; NMeOrn(Me) = CNCCC[C@H](NC)C(=O)O; Ala(cPr) = N[C@@H](CC1CC1)C(=O)O; NMeF = CN[C@@H](Cc1ccccc1)C(=O)O; PhLac = O=C(O)[C@@H](O)Cc1ccccc1; X4 = O=C([C@H](CCCF)N[*:1])[*:2]; 3Pal = N[C@@H](Cc1cccnc1)C(=O)O; Gly(N(CH2)3NH2) = NCCCNCC(=O)O; Ahp(2) = CCCCC[C@H](N)C(=O)O; Cba = N[C@@H](CC1CCC1)C(=O)O; hLeu = CC(C)CC[C@H](N)C(=O)O; NMeS = CN[C@@H](CO)C(=O)O; αMeC = C[C@](N)(CS)C(=O)O; NMeA = CN[C@@H](C)C(=O)O; Nle = CCCC[C@H](N)C(=O)O

Target: phosphorylation levels of ERK1/2 in AsPC-1 (homozygous KRAS-G12D) cells (Homo sapiens, UniProt P01116, G12D)
Sequence (P01116 1-186 G12D): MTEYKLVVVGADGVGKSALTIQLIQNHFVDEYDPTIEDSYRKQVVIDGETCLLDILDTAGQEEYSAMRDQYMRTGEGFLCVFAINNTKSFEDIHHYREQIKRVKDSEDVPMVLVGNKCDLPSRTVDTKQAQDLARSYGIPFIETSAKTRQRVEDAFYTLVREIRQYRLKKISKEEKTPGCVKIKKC
Experiment: Cellular phospho-ERK assay in AsPC-1 cells (Alpha Screen), assay medium without fetal bovine serum;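 also: signal taken as phospho-ERK over total ERK per well, both detected in one multiplex bead assay, EC50 from four-parameter logistic fit of dose-response curves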
Format: cell-based
Conditions: phospho-ERK AlphaScreen, 18 h

SMILES	EC50 [µM]
C[C@H]1C(=O)N[C@@H](Cc2cccnc2)C(=O)N[C@@H](CC2CC2)C(=O)N[C@@H](Cc2ccccc2F)C(=O)N[C@@H](CCC(C)(C)F)C(=O)N(C)[C@@H](Cc2cncc(F)c2)C(=O)NCC23CC(C2)(C3)C(=O)O[C@@H](Cc2ccccc2)C(=O)N1C [compound 284, cyclo(FLac-NMeA-3Pal-cPrA-Phe2F-hL3F-NMe3Pal5F-amBCP)] (cyclo([3Pal][Ala(cPr)][Phe(2-F)][X11][NMe3Pal(5-F)][X1][PhLac][NMeA]))	4.59
CC(C)CC[C@@H]1NC(=O)[C@H](Cc2ccccc2F)NC(=O)[C@H](CC2CC2)NC(=O)[C@H](Cc2cncnc2)NC(=O)[C@H](C)N(C)C(=O)[C@H](Cc2ccccc2)OC(=O)C23CC(CNC(=O)[C@H](Cc4ccncc4F)N(C)C1=O)(C2)C3 [compound 337, cyclo(FLac-NMeA-PyrimAla-cPrA-Phe2F-hL-NMe4Pal2F-amBCP)] (cyclo([Ala(cPr)][Phe(2-F)][hLeu][X45][X1][PhLac][NMeA][Ala(pyrimidin-5-yl)]))	3.35
CCCC[C@@H]1NC(=O)[C@H](Cc2cncnc2)NC(=O)[C@H](CO)N(C)C(=O)[C@H](Cc2ccccc2)OC(=O)C23CC(CNC(=O)[C@H](Cc4cccnc4)N(C)C(=O)[C@H](CCCC)NC(=O)[C@H](Cc4ccccc4F)NC1=O)(C2)C3 [compound 119, cyclo(FLac-NMeS-PyrimAla-Nle-Phe2F-Nle-NMe3Pal-amBCP)] (cyclo([NMe3Pal][X1][PhLac][NMeS][Ala(pyrimidin-5-yl)][Nle][Phe(2-F)][Nle]))	> 50.8
CCCC[C@@H]1NC(=O)[C@H](CCCCN)NC(=O)[C@H](CCCNC(=N)N)NC(=O)[C@H](Cc2cccc3ccccc23)NC(=O)CSCCNC(=O)[C@H](Cc2ccccc2)N(C)C(=O)[C@H](CCCC)NC(=O)[C@H](Cc2cccc(C(=O)O)c2)NC1=O [compound 197, cyclo(1Nal-R-K-Nle-Phe3COOH-Nle-NMeF-Cysteamine)-ClAc] (cyclo([1Nal]RK[Nle][Phe(3-COOH)][Nle][NMeF][NHCH2CH2SCH2CO]))	> 50.8
CCCCC[C@@H]1NC(=O)[C@H](Cc2ccc(OC)cc2)NC(=O)[C@H](CC2CCC2)NC(=O)[C@H](Cc2ccc(OCCN3CCCC3)cc2)NC(=O)[C@H](CCCNC(=N)N)NC(=O)[C@H](Cc2ccccc2)NC(=O)CSC[C@@](C)(C(N)=O)NC(=O)[C@H](Cc2ccccc2)N(C)C1=O [compound 383, cyclo(F-R-TyrOEtPyr-cBuA-TyrOMe-Ahp-NMeF-aMeCl-ClAc)] ({CH2CO}-FRY(Ethyl(2-pyrrolidin-1-yl))[Cba]Y(Me)[Ahp(2)][NMeF][αMeC]-NH2; thioether N-8)	> 50.8
CCCCC[C@@H]1NC(=O)[C@H](Cc2ccc(OC)cc2)NC(=O)[C@H](CC2CCC2)NC(=O)[C@H](Cc2ccc(N3CCC[C@@H]3CN)cc2)NC(=O)[C@H](CCCNC(=N)N)NC(=O)[C@H](Cc2ccccc2)NC(=O)CSC[C@@](C)(C(N)=O)NC(=O)[C@H](Cc2ccccc2)N(C)C1=O [compound 391, cyclo(F-R~Phe4RamPyrr-cBuA-TyrOMe-Abp-NMeF-aMeCl-ClAc)]	> 50.8
CCCC[C@@H]1NC(=O)[C@H](Cc2ccccc2F)NC(=O)[C@H](CCC(C)C)NC(=O)[C@H](Cc2cncnc2)NC(=O)[C@H](C)N(C)C(=O)[C@H](Cc2ccccc2)OC(=O)C23CC(CNC(=O)[C@H](Cc4cccnc4)N(C)C1=O)(C2)C3 [compound 127, cyclo(FLac-NMeA-PyrimAla-hL-Phe2F-Nle-NMe3Pal-amBCP)] (cyclo([NMe3Pal][X1][PhLac][NMeA][Ala(pyrimidin-5-yl)][hLeu][Phe(2-F)][Nle]))	> 50.8
CCCCC[C@@H]1NC(=O)[C@H](Cc2ccc(OC)cc2)NC(=O)[C@H](CC2CCC2)NC(=O)[C@H](Cc2ccc(OC)nc2)NC(=O)[C@H](CCCNC(=N)N)NC(=O)[C@H](Cc2ccccc2)NC(=O)CSC[C@@](C)(C(N)=O)NC(=O)[C@H](Cc2ccccc2)N(C)C1=O [compound 365, cyclo(F-R-40Me3Pal-cBuA-TyrOMe-Ahp-NMeF-aMeCl-ClAc)] ({CH2CO}-FR[3Pal(6-OMe)][Cba]Y(Me)[Ahp(2)][NMeF][αMeC]-NH2; thioether N-8)	> 50.8
Cc1cccc(C[C@H]2C(=O)NCC34CC(C3)(C4)C(=O)O[C@@H](Cc3ccccc3)C(=O)N(C)[C@@H](C)C(=O)N[C@@H](Cc3cncnc3)C(=O)N[C@@H](CC3CC3)C(=O)N[C@@H](Cc3ccncc3F)C(=O)N[C@@H](CCC(C)C)C(=O)N2C)c1 [compound 279, cyclo(FLac-NMeA-PyrimAla-cPrA-4Pal2F-hL-NMePhe3Me-amBCP)] (cyclo([Ala(cPr)][X13][hLeu][NMePhe(3-Me)][X1][PhLac][NMeA][Ala(pyrimidin-5-yl)]))	4.02
CC(C)CC[C@@H]1NC(=O)[C@H](Cc2ccccc2F)NC(=O)[C@H](CCCF)NC(=O)[C@H](Cc2cncnc2)NC(=O)[C@H](C)N(C)C(=O)[C@H](Cc2ccccc2)OC(=O)C23CC(CNC(=O)[C@H](Cc4ccccc4)N(C)C1=O)(C2)C3 [compound 133, cyclo(FLac-NMeA-PyrimAla-NvaF-Phe2F-hL-NMeF-amBCP)] (cyclo([NMeA][Ala(pyrimidin-5-yl)][X4][Phe(2-F)][hLeu][NMeF][X1][PhLac]))	2.26
CCCC[C@@H]1NC(=O)[C@H](Cc2cccnc2)NC(=O)[C@H](CCCNC(=N)N)NC(=O)[C@H](Cc2ccccc2)OC(=O)C23CC(CNC(=O)[C@H](Cc4ccccc4)N(C)C(=O)[C@H](CCCC)NC(=O)[C@H](Cc4ccccc4F)NC1=O)(C2)C3 [compound 212, cyclo(FLac-R-3Pal-Nle-Phe2F-Nle-NMeF-amBCP)] (cyclo([PhLac]R[3Pal][Nle][Phe(2-F)][Nle][NMeF][X1]))	39.4
C[C@H]1C(=O)N[C@@H](Cc2cncnc2)C(=O)N[C@@H](CC2CC2)C(=O)N[C@@H](Cc2ccccc2F)C(=O)N[C@@H](CCC(C)(C)F)C(=O)N(C)[C@@H](Cc2ccccc2)C(=O)NCC23CC(C2)(C3)C(=O)C[C@@H](Cc2ccccc2)C(=O)N1C [compound 273, cyclo(CPhe-NMeA-PyrimAla-cPrA-Phe2F-hL3F-NMeF-amBCP)] (cyclo([Ala(cPr)][Phe(2-F)][X11][NMeF][X34][NMeA][Ala(pyrimidin-5-yl)]))	1.23
C[C@H]1C(=O)N[C@@H](Cc2cncnc2)C(=O)N[C@@H](CC2CCC2)C(=O)N[C@@H](Cc2ccccc2F)C(=O)N[C@@H](CCC(C)(C)F)C(=O)N(C)[C@@H](Cc2ccccc2)C(=O)NCC23CC(C2)(C3)C(=O)O[C@@H](Cc2ccccc2)C(=O)N1C [compound 225, cyclo(FLac-NMeA-PyrimAla-cBuA-Phe2F-hL3F-NMeF-amBCP)] (cyclo([Cba][Phe(2-F)][X11][NMeF][X1][PhLac][NMeA][Ala(pyrimidin-5-yl)]))	0.674
CCCCC[C@@H]1NC(=O)[C@H](Cc2ccc(OC)cc2)NC(=O)[C@H](CC2CCC2)NC(=O)[C@H](Cc2cccnc2)NC(=O)[C@H](CCCNC(=N)N)NC(=O)[C@H](Cc2ccccc2)NC(=O)CSC[C@@](C)(C(N)=O)NC(=O)[C@H](Cc2cncnc2)N(C)C1=O [compound 376, cyclo(F-R-3Pal-cBuA-TyrOMe-Ahp-NMeAlaPyrim-aMeCl-ClAc)] ({CH2CO}-FR[3Pal][Cba]Y(Me)[Ahp(2)][X3][αMeC]-NH2; thioether N-8)	> 50.8
CCCCC[C@@H]1NC(=O)[C@H](Cc2ccc(OC)cc2)NC(=O)[C@H](CC2CCC2)NC(=O)[C@H](Cc2ccc(NC(=N)N)cc2)NC(=O)CN(CCCN)C(=O)[C@H](Cc2ccccc2)NC(=O)CSC[C@@](C)(C(N)=O)NC(=O)[C@H](Cc2ccccc2)N(C)C1=O [compound 388, cyclo(F-NPrNH2G-Phe4Gn-cBuA-TyrOMe-Ahp-NMeF-aMeCl-ClAc)] ({CH2CO}-F[Gly(N(CH2)3NH2)][Phe(4-guanidino)][Cba]Y(Me)[Ahp(2)][NMeF][αMeC]-NH2; thioether N-8)	> 50.8
CCCCC[C@@H]1NC(=O)[C@H](Cc2ccc(OC)cc2)NC(=O)[C@H](CC2CCC2)NC(=O)[C@H](Cc2ccc(NC(=N)N)cc2)NC(=O)[C@H](CCCNC(=N)NC)N(C)C(=O)[C@H](Cc2ccccc2)NC(=O)CSC[C@@](C)(C(N)=O)NC(=O)[C@H](Cc2ccccc2)N(C)C1=O [compound 380, cyclo(F-NMeArgMe-Phe4Gn-cBuA-TyrOMe-Abp-NMeF-aMeCl-ClAc)] ({CH2CO}-F[NMeArg(Me)][Phe(4-guanidino)][Cba]Y(Me)[Ahp(2)][NMeF][αMeC]-NH2; thioether N-8)	> 50.8
CCCCC[C@@H]1NC(=O)[C@H](Cc2ccc(OC)cc2)NC(=O)[C@H](CC2CCC2)NC(=O)[C@H](Cc2cncnc2)NC(=O)[C@H](CCCNC)N(C)C(=O)[C@H](Cc2ccccc2)NC(=O)CSC[C@@](C)(C(N)=O)NC(=O)[C@H](Cc2ccc(C)nc2)N(C)C1=O [compound 394, cyclo(F-NMeOmMe-PyrimAla-cBuA-TyrOMe-Ahp-NMe3Pal4Me-aMeCl-ClAc)] ({CH2CO}-F[NMeOrn(Me)][Ala(pyrimidin-5-yl)][Cba]Y(Me)[Ahp(2)][NMe3Pal(6-Me)][αMeC]-NH2; thioether N-8)	> 50.8
Cc1cccc(C[C@H]2C(=O)NCC34CC(C3)(C4)C(=O)O[C@@H](Cc3ccccc3)C(=O)N(C)[C@@H](C)C(=O)N[C@@H](Cc3cncnc3)C(=O)N[C@@H](CC3CC3)C(=O)N[C@@H](Cc3ccccc3F)C(=O)N[C@@H](CCC3CC3)C(=O)N2C)c1 [compound 334, cyclo(FLac-NMeA-PyrimAla-cPrA-Phe2F-hcPrA-NMePhe3Me-amBCP)] (cyclo([Ala(cPr)][Phe(2-F)][X31][NMePhe(3-Me)][X1][PhLac][NMeA][Ala(pyrimidin-5-yl)]))	0.224
CCCC[C@@H]1NC(=O)[C@H](Cc2cncnc2)NC(=O)[C@H](C)N(C)C(=O)[C@H](Cc2ccccc2)OC(=O)C23CC(CNC(=O)[C@H](Cc4cccnc4)N(C)C(=O)[C@H](CCCC)NC(=O)[C@H](Cc4ccccc4F)NC1=O)(C2)C3 [compound 237, cyclo(FLac-NMeA-PyrimAla-Nle-Phe2F-Nle-NMe3Pal-amBCP)] (cyclo([NMe3Pal][X1][PhLac][NMeA][Ala(pyrimidin-5-yl)][Nle][Phe(2-F)][Nle]))	13.4
CCCC[C@@H]1NC(=O)[C@H](Cc2cncnc2)NC(=O)[C@H](CCCn2ccnc2)N(C)C(=O)[C@H](Cc2ccccc2)OC(=O)C23CC(CNC(=O)[C@H](Cc4ccccc4)N(C)C(=O)[C@H](CCCC)NC(=O)[C@H](Cc4ccccc4F)NC1=O)(C2)C3 (single isomer, unassigned) [compound 223, cyclo(FLac-NMeNvalmid-PyrimAla-Nle-Phe2F-Nle-NMeF-amBCP)]	11.1
